Measurements taken from patent publication US9051310B2, “Nicotinamide derivative or salt thereof” (FUJIFILM Corporation, priority 2011, dated 2015).

Experiments:
[1] = molecular target: T1, glutathione S-transferase (GST)-linked full-length human Syk protein (Homo sapiens, UniProt P43405); assay: Syk enzyme assay; type: biochemical; conditions: 0.83 nM Syk, time-resolved fluorescence; read-out: IC50 of Syk-inhibitory activity
T1 construct: glutathione S-transferase (GST)-linked full-length human Syk protein; purchased Carna Biosciences; host or cells: Baculovirus expression system
Outline: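 Phosphotyrosine on a biotin-peptide substrate (0.5 μM) was read by time-resolved fluorescence at 615 and 665 nm with Eu-anti-pTyr antibody and APC-streptavidin after 1 h EDTA stop.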

[2] = tested on: THP-1 cells (TNFα secretion on human IgG-coated plate); assay: TNFα generation assay; type: cell-based; conditions: IFN-γ differentiated THP-1 cells, 7 hours, AlphaLISA, read-out: IC50 of TNFα generation inhibitory activity
Method: THP-1 cells (2×10^5 cells/ml), which were human monocytoid cells, were cultured in the presence of 10 ng/ml IFN-γ (Roche) for 2 days, and they were induced to differentiate into macrophage-like cells. The differentiation-induced THP-1 cells were recovered, and the cells (1×10^6 cell/ml) were then allowed to react with a predetermined concentration of test compound at room temperature for 30 minutes. On the other hand, 100 μl of human IgG (10 μg/ml, SIGMA-ALDRICH) diluted with PBS was added to a 96-well plate, and it was then incubated at room temperature overnight. Thereafter, the resultant was washed with PBS twice to produce a human IgG-coated plate. A cell fluid that contained a compound was plated on the obtained human IgG-coated plate (5×10^4 cells/well), and it was then cultured for 7 hours. Thereafter, the cultured solution was recovered, and the amount of TNFα secreted into the culture solution was then measured by the AlphaLISA method (PerkinElmer).

SMILES	IC50 [1] [nM]	IC50 [2] [nM]
COC[C@@H](Nc1nc(Nc2ccc3c(c2)c(C)nn3C)c(C(N)=O)cc1F)[C@H](C)N [Example 2-196, 6-(((2S,3S)-3-amino-1-methoxybutan-2-yl)amino)-2-((1,3-dimethyl-1H-indazol-5-yl)amino)-5-fluoronicotinamide]	< 10	65 to 130
COc1nn(C)c2ccc(Nc3nc(N[C@@H]4CCOC[C@@H]4N)c(F)cc3C(N)=O)cc12 [Example 2-210, 6-(((3R,4R)-3-aminotetrahydro-2H-pyran-4-yl)amino)-5-fluoro-2-((3-methoxy-1-methyl-1H-indazol-5-yl)amino)nicotinamide]	< 10	< 65
CCn1ncc2c(Nc3nc(N[C@H](c4cc(F)cc(F)c4)[C@H](C)N)c(F)cc3C(N)=O)cccc21 [Example 2-551, 6-(((1R,2S)-2-amino-1-[3,5-difluorophenyl)propyl)amino)-2-((1-ethyl-1H-indazol-4-yl)amino)-5-fluoronicotinamide]	10 to 50	–
CC[C@@H](Nc1nc(Nc2ccc3c(c2)c(N(C)CCOC)nn3C)c(C(N)=O)cc1F)[C@H](C)N [Example 2-458, 6-(((2S,3R)-2-aminopentan-3-yl)amino)-5-fluoro-2-((3-((2-methoxyethyl)(methyl)amino)-1-methyl-1H-indazol-5-yl)amino)nicotinamide]	< 10	–
CNc1n[nH]c2ccc(Nc3nc(N[C@H](C4CC4)[C@H](C)N)c(F)cc3C(N)=O)cc12 [Example 2-490, 6-(((1R,2S)-2-amino-1-cyclopropylpropyl)amino)-5-fluoro-2-((3-(methylamino)-1H-indazol-5-yl)amino)nicotinamide]	10 to 50	–
CCC[C@@H](Nc1nc(Nc2ccc3c(c2)c(N(C)C)nn3CCOC)c(C(N)=O)cc1F)[C@H](C)N [Example 2-503, 6-(((2S,3R)-2-aminohexan-3-yl)amino)-2-((3-(dimethylamino)-1-(2-methoxyethyl)-1H-indazol-5-yl)amino)-5-fluoronicotinamide]	10 to 50	–
CC[C@H](N)[C@@H](C)Nc1nc(Nc2cncc3c2cnn3CC(F)F)c(C(N)=O)cc1F [Example 2-402, 6-(((2R,3S)-3-aminopentan-2-yl)amino)-2-((1-(2,2-difluoroethyl)-1H-pyrazolo[3,4-c]pyridin-4-yl)amino)-5-fluoronicotinamide]	< 10	–
CCOC[C@@H](Nc1nc(Nc2cccc3c2cnn3CCOC)c(C(N)=O)cc1F)[C@H](C)N [Example 2-310, 6-(((2S,3S)-3-amino-1-ethoxybutan-2-yl)amino)-5-fluoro-2-((1-(2-methoxyethyl)-1H-indazol-4-yl)amino)nicotinamide]	50 to 100	–
CC[C@H](N)[C@@H](CC)Nc1nc(Nc2cnc3c(c2)c(OC)nn3C)c(C(N)=O)cc1F [Example 2-258, 6-(((3R,4S)-4-aminohexan-3-yl)amino)-5-fluoro-2-((3-methoxy-1-methyl-1H-pyrazolo[3,4-b]pyridin-5-yl)amino)nicotinamide]	10 to 50	–
CC[C@@H](Nc1nc(Nc2cncc3c2cnn3CCOC)c(C(N)=O)cc1F)[C@H](C)N [Example 2-387, 6-(((2S,3R)-2-aminopentan-3-yl)amino)-5-fluoro-2-((1-(2-methoxyethyl)-1H-pyrazolo[3,4-c]pyridin-4-yl)amino)nicotinamide]	10 to 50	–
CCCC[C@@H](Nc1nc(Nc2cc(F)c3c(c2)c(N(C)C)nn3C)c(C(N)=O)cc1F)[C@H](C)N [Example 2-189, 6-(((2S,3R)-2-aminoheptan-3-yl)amino)-2-((3-(dimethylamino)-7-fluoro-1-methyl-1H-indazol-5-yl)amino)-5-fluoronicotinamide]	< 10	–
Cc1cnn(-c2cncc(Nc3nc(N[C@H](CC(C)C)[C@H](C)N)c(F)cc3C(N)=O)c2)c1 [Example 2-525, 6-(((2S,3R)-2-amino-5-methylhexan-3-yl)amino)-5-fluoro-2-((5-(4-methyl-1H-pyrazol-1-yl)pyridin-3-yl)amino)nicotinamide]	< 10	–
CC[C@H](N)[C@@H](C)Nc1nc(Nc2cnc(OC)c(-n3nccn3)c2)c(C(N)=O)cc1F [Example 2-279, 6-(((2R,3S)-3-aminopentan-2-yl)amino)-5-fluoro-2-((6-methoxy-5-(2H-1,2,3-triazol-2-yl)pyridin-3-yl)amino)nicotinamide]	10 to 50	–
CC[C@@H](Nc1nc(Nc2cnc(OC)c(-n3ccnn3)c2)c(C(N)=O)cc1F)[C@H](C)N [Example 2-204, 6-(((2S,3R)-2-aminopentan-3-yl)amino)-5-fluoro-2-((6-methoxy-5-(1H-1,2,3-triazol-1-yl)pyridin-3-yl)amino)nicotinamide]	10 to 50	–
COc1cc(Nc2nc(N[C@@H](CN)Cc3ccccc3)c(F)cc2C(N)=O)cc(OC)n1 [Example 2-418, (R)-6-((1-amino-3-phenylpropan-2-yl)amino)-2-((2,6-dimethoxypyridin-4-yl)amino)-5-fluoronicotinamide]	10 to 50	–
CC(C)c1ccc(Nc2nc(N[C@@H]3CCCC[C@@H]3N)c(F)cc2C(N)=O)cc1 [Example 2-448, 6-(((1R,2S)-2-aminocyclohexyl)amino)-5-fluoro-2-((4-isopropylphenyl)amino) nicotinamide]	10 to 50	–
CC(C)C[C@@H](Nc1nc(Nc2cccc3c2cnn3C)c(C(N)=O)cc1F)[C@H](C)N [Example 2-12, 6-(((2S,3R)-2-amino-5-methylhexan-3-yl)amino)-5-fluoro-2-((1-methyl-1H-indazol-4-yl)amino)nicotinamide]	< 10	–
COc1nn(C)c2c(F)cc(Nc3nc(N[C@H](C4CC4)[C@H](C)N)c(F)cc3C(N)=O)cc12 [Example 2-154, 6-(((1R,2S)-2-amino-1-cyclopropylpropyl)amino)-5-fluoro-2-((7-fluoro-3-methoxy-1-methyl-1H-indazol-5-yl)amino)nicotinamide]	< 10	–
COCCn1nc(OC(F)F)c2cc(Nc3nc(N[C@H](C4CCC4)[C@H](C)N)c(F)cc3C(N)=O)ccc21 [Example 2-543, 6-(((1R,2S)-2-amino-1-cyclobutylpropyl)amino)-2-((3-(difluoromethoxy)-1-(2-methoxyethyl)-1H-indazol-5-yl)amino)-5-fluoronicotinamide]	< 10	–

Results, then the compound that gave them:

IC50 [1] [nM]	IC50 [2] [nM]	SMILES
10 to 50	130 to 200	Cn1nc(N2CCCC2)c2cc(Nc3nc(N[C@@H]4CCCC[C@@H]4N)c(F)cc3C(N)=O)ccc21 [Example 2-428, 6-(((1R,2S)-2-aminocyclohexyl)amino)-5-fluoro-2-((1-methyl-3-(pyrrolidin-1-1)-1H-indazol-5-yl)amino)nicotinamide]
10 to 50	130 to 200	CCC[C@@H](Nc1nc(Nc2cnc3c(c2)c(C)nn3C)c(C(N)=O)cc1F)[C@H](C)N [Example 2-242, 6-(((2S,3R)-2-aminohexan-3-yl)amino)-2-((1,3-dimethyl-1H-pyrazolo[3,4-b]pyridin-5-yl)amino)-5-fluoronicotinamide]
10 to 50	130 to 200	CCOC[C@@H](Nc1nc(Nc2cccc3c2cnn3CC)c(C(N)=O)cc1F)[C@H](C)N [Example 2-180, 6-(((2S,3S)-3-amino-1-ethoxybutan-2-yl)amino)-2-((1-ethyl-1H-indazol-4-yl)amino)-5-fluoronicotinamide]
< 10	65 to 130	CCC[C@@H](Nc1nc(Nc2cc(F)c3c(c2)c(N(C)C)nn3C)c(C(N)=O)cc1F)[C@H](C)N [Example 2-187, 6-(((2S,3R)-2-aminohexan-3-yl)amino)-2-((3-(dimethylamino)-7-fluoro-1-methyl-1H-indazol-5-yl)amino)-5-fluoronicotinamide]
< 10	130 to 200	C[C@H](N)[C@H](Nc1nc(Nc2cccc3c2cnn3CC(F)F)c(C(N)=O)cc1F)C1CC1 [Example 2-75, 6-(((1R,2S)-2-amino-1-cyclopropylpropyl)amino)-2-((1-(2,2-difluoroethyl)-1H-indazol-4-yl)amino)-5-fluoronicotinamide]
< 10	–	CNc1n[nH]c2ccc(Nc3nc(N[C@@H]4CCCC[C@@H]4N)c(F)cc3C(N)=O)cc12 [Example 2-488, 6-(((1R,2S)-2-aminocyclohexyl)amino)-5-fluoro-2-((3-(methylamino)-1H-indazol-5-yl)amino)nicotinamide]
< 10	–	CC[C@H](N)[C@H](Nc1nc(Nc2cccc3c2cnn3CC(F)F)c(C(N)=O)cc1F)C1CC1 [Example 2-547, 6-(((1R,2S)-2-amino-1-cyclopropylbutyl)amino)-2-((1-(2,2-difluoroethyl)-1H-indazol-4-yl)amino)-5-fluoronicotinamide]
10 to 50	–	C[C@H](N)[C@@H](CC1CC1)Nc1nc(Nc2ccc3nn(C)c(N(C)C)c3c2)c(C(N)=O)cc1F [Example 2-14, 6-(((2R,3S)-3-amino-1-cyclopropylbutan-2-yl)amino)-2-((3-(dimethylamino)-2-methyl-2H-indazol-5-yl)amino)-5-fluoronicotinamide]
< 10	–	CN(C)c1n[nH]c2ccc(Nc3nc(N[C@@H]4CCCC[C@@H]4N)c(F)cc3C(N)=O)cc12 [Example 2-492, 6-(((1R,2S)-2-aminocyclohexyl)amino)-2-((3-(dimethylamino)-1H-indazol-5-yl)amino)-5-fluoronicotinamide]
